What was measured:
[1] = test system: Carrageenin-induced edema; experiment: Carrageenin-induced edema; format: in vivo, rat (Donryu strain, male); conditions: Rattus norvegicus, po, mean in 5 hours, read-out: Inhibitory percent of swelling
Protocol: (iii) Carrageenin-induced edema
Each of the 6 Donryu strain male rats per group (each weighing about 140 g), which had been fasted overnight, was orally loaded with 4 ml of water and, after 30 minutes, the test compound was orally administered thereto. Thirty minutes thereafter, a 1%(Wt/V) solution of carrageenin in physiological saline was subcutaneously injected into the subplantar region of the left hind paw. At a time interval of one hour, starting from the end of the first hour till the end of the fifth hour after injection of carrageenin, the paw volume was measured by means of a manometer and pressure transducer. By comparison with the percent increase in swelling of the control group of rats to which a 0.5%(V/V) solution of Tween 80 had been administered, the mean inhibitory percent in 5 hours of swelling was calculated by the following equation: [formula]

[2] = test system: Vascular permeability; experiment: Vascular permeability in rat (Whittle's method); format: in vivo, rat (Wistar strain, male)
Protocol: (ii) Vascular permeability in rat (Whittle's method)
The test compound was orally administered to each Wistar strain male rat (weighing about 150 g) which had been fasted overnight. After 55 minutes, 0.5 ml of a 0.5% Evans Blue solution was intravenously injected. Five minutes thereafter, 0.2 ml/100 g of a 3%(V/V) acetic acid solution was intraperitoneally injected. After 60 minutes from the injection of the acetic acid solution, the rats were killed by suffocation with chloroform. After immediate laparotomy, the dye leaked into the peritoneal cavity was washed out with physiological saline. The washings were made up with the saline to 30 ml and the absorbance at 640 mμ was measured to examine the effect of the test compounds by comparing the amounts of leaked dye per rat with one another.

[3] = test system: phenylbenzoquinone writhing; experiment: Analgesic activity, phenylbenzoquinone method in mouse; format: in vivo, mouse (ddY strain, male); conditions: for Frequency of writhing, mean ± S.E.: during 10 minutes
Protocol: (i) Phenylbenzoquinone method in mouse
The test compound was orally administered to each ddY strain male mouse (weighing 22±2 g; 8 mice per group). […] The frequency of writhing during 10 minutes from 5-minutes after the injection of phenylbenzoquinone was measured and compared with that of a control group to which a 0.5% Tween 80 solution was administered. The percent inhibition was calculated by the following equation: [formula]

[4] = test system: Adjuvant arthritis; experiment: Adjuvant arthritis; format: in vivo, rat (Sprague-Dawley strain, male); conditions: 1 mg/kg p.o./day, mean during one week
Protocol: A suspension containing 6 mg/ml of killed and dried Mycobacterium butyricum in liquid paraffin was subcutaneously injected into the subplantar region of the left hind paw of Sprague-Dawley strain male rats (weighing 180 to 200 g) in a proportion of 0.1 ml/rat. After 14 days, the rats having inflammatory paws of similar volumes were selected and the test compound was orally administered to the rats repeatedly at the rate shown in Table 4 during one week and the mean inhibitory percent of swelling during one week was determined.

[5] = Test for ulcerogenic action (i), single dose, fasted rats; format: in vivo; conditions: rat, in vivo, po
Protocol: (§1) (4) Test for ulcerogenic action
(§2) After 18 hours, the rats were killed by suffocation with chloroform and their stomachs were excised. After having been filled with 5 ml of 1% formalin to fix the gastric mucosa, each stomach was incised along the greater curvature to inspect grossly the extent of injury of the gastric mucosa. The extent of injury was scored as follows: 0, no lesion; 1, petechia or erosion; 2, 1-5 small ulcers; 3, many small ulcers; 4, many large ulcers or perforation. The intestinal injury was evaluated based on the incidence of erosion.

[6] = test system: gastric mucosa and intestine; experiment: as above; format: in vivo; conditions: for Gastric glandular score: 18 hours, score 0 (no lesion) to 4 (many large ulcers or perforation)
Protocol: as §1, §2

[7] = in vivo; conditions: rat, po
[8] = test system: Vascular permeability; experiment: Vascular permeability in mice (Whittle's method); format: in vivo, mouse (ddY strain, male); conditions: for Inhibition: dye leakage
Protocol: (i) Vascular permeability in mice (Whittle's method)
The test compound was orally administered to each ddY strain male mouse (weighing each about 20 g). After 20 minutes, 0.1 ml/10 g of a 4%(Wt/V) solution of Pontamine Sky Blue in physiological saline was intravenously injected and 10 minutes thereafter 0.1 ml/10 g of a 0.7%(V/V) solution of acetic acid in physiological saline was injected intraperitoneally. After 30 minutes, the mice were killed by suffocation with chloroform. After immediate laparotomy, the dye leaked into the peritoneal cavity was washed out with distilled water. The washings were made up with water to 30 ml and the absorbance at 620 mμ was measured. The amount of leaked dye per 20 g of mouse weight was compared.

[9] = test system: gastric mucosa and intestine; experiment: Test for ulcerogenic action (ii), three doses, rats on normal meal; format: in vivo, rat (Donryu strain, male); parameters: scale not given here
Protocol: (ii) In the same manner as in (i), the test compound was orally administered to each Donryu strain male rat (weighing about 180 g; 10 rats per group) which had received normal meal. The second dose was administered after 8 hours and the third dose after 16 hours from the second dose. Five hours after the last administration, the rats were treated in the same manner as in (i). The gastric mucosa injury and the intestinal injury were scored in the same manner as in (i).

[10] = test system: pain threshold (brewer's yeast, hind paw); experiment: Analgesic activity, Randall-Selitto method in rat; format: in vivo, rat (Wistar strain, male); conditions: for Inhibition: 100% = pain threshold raised by 150 g
Protocol: (ii) Randall-Selitto method in rat
After one hour, the test compound was orally administered. One hour thereafter, the pain threshold value was measured four times at a time interval of one hour. The mean value of four values obtained was taken as the pain threshold value of each group of rats. The activity of the drug was assumed to be 100% when the pain threshold value was raised by 150 g.

## CC(C(=O)O)c1ccc(-c2cccs2)cc1 (centres unmarked) [Compound C2]
[1]; 1 mg/kg p.o.
  inhibition in vivo at 1 mg/kg: 11.8%
[1]; 5 mg/kg p.o.
  inhibition in vivo at 5 mg/kg: 32.9%
[2]; 1 mg/kg p.o.
  Inhibition: 16.4%
[2]; 5 mg/kg p.o.
  Inhibition: 47.3%
[2]; po, rat, read-out: ED30
  ED30: 2.1 mg/kg
[3]; 10 mg/kg p.o.
  Frequency of writhing, mean ± S.E.: 22.3 ± 1.9
[3]; 20 mg/kg p.o.
  Frequency of writhing, mean ± S.E.: 14.6 ± 3.1
[3]; 40 mg/kg p.o.
  Frequency of writhing, mean ± S.E.: 11.1 ± 2.4
[3]; Mus musculus, po, 10 min, writhing, 10 mg/kg p.o., read-out: Inhibition
  inhibition in vivo at 10 mg/kg: 5.5%
[3]; Mus musculus, po, 10 min, writhing, 20 mg/kg p.o., read-out: Inhibition
  inhibition in vivo at 20 mg/kg: 38.1%
[3]; Mus musculus, po, 10 min, writhing, 40 mg/kg p.o.
  inhibition in vivo at 40 mg/kg: 53%
[3]; po, mouse, read-out: ED50
  ED50: 33 mg/kg
[4]
  Inhibitory percent of swelling: 7.2%
[5]
  TD50 at 18 h: 25 mg/kg
[6]; 10 mg/kg p.o.
  Intestine erosion incidence: 1/7
  Gastric glandular score: 1.11 ± 0.21
[6]; 30 mg/kg p.o.
  Intestine erosion incidence: 1/7
  Gastric glandular score: 1.89 ± 0.24
[6]; 100 mg/kg p.o.
  Intestine erosion incidence: 6/7
  Gastric glandular score: 3.61 ± 0.26
[6]; rat, in vivo
  Death incidence: 3/7
[7]
  LD50: 115 mg/kg
[8]; 5 mg/kg p.o.
  Dye leakage (P.S.B.) mean ± S.E.: 314.7 ± 31.3 μg/20g
  Inhibition: 1.9%
[8]; 10 mg/kg p.o.
  Dye leakage (P.S.B.) mean ± S.E.: 264.8 ± 21.8 μg/20g
  Inhibition: 17.5%
[8]; po, mouse, read-out: ED30
  ED30: 19.8 mg/kg
[9]; 5 mg/kg × 3 p.o.
  Score, intestine, mean ± S.E.: 1.07 ± 0.30
  Score, stomach, mean ± S.E.: 1.21 ± 0.18
[9]; 15 mg/kg × 3 p.o.
  Score, intestine, mean ± S.E.: 1.17 ± 0.21
  Score, stomach, mean ± S.E.: 2.33 ± 0.31
[10]; 1 mg/kg p.o.
  Inhibition: 33.8%
[10]; 5 mg/kg p.o.
  Inhibition: 35.2%
[10]; 25 mg/kg p.o.
  Inhibition: 58.5%
[10]; po, rat, read-out: ED50
  ED50: 14.5 mg/kg

Source: patent publication US4230719A, “Novel 2-[4-(3-methyl-2-thienyl)phenyl]propionic acid and pharmaceutically acceptable salt thereof and method for treating symptoms of inflammation and pain” (Toyama Chemical Co., Ltd., priority 1977, dated 1980)
